In the assay the target is C5 (Homo sapiens, UniProt P01031). The experiment in a line: Alternative human hemolysis assay using C5 depleted sera and purified human C5. Format: cell-based. Details: purchased Complement Technology, Tyler, Tex. Particulars: 0.5 nM purified human C5.

Starred links: 1 amine or outer side, 2 acyl side, 3 side chain; linkers in the order of their positions; H or OH if unused. Positions of bridges follow the written chain, without caps; N, C: chain ends. Non-standard residues stand in square brackets, D forms with d. Residues, ends and D or L forms follow the SMILES beside them. Ala(1H-tetrazol-5-yl) = N[C@@H](Cc1nnn[nH]1)C(=O)O; Trp(7-aza) = N[C@@H](Cc1c[nH]c2ncccc12)C(=O)O; hPhe(3-Cl) = N[C@@H](CCc1cccc(Cl)c1)C(=O)O; 2Nal = N[C@@H](Cc1ccc2ccccc2c1)C(=O)O; mXylylene = c1cc(C[*:1])cc(C[*:2])c1; Chg = N[C@H](C(=O)O)C1CCCCC1; Tle = CC(C)(C)[C@H](N)C(=O)O; Ac5c = NC1(C(=O)O)CCCC1; Nva = CCC[C@H](N)C(=O)O; Thp = NC1(C(=O)O)CCOCC1

Sequence of C5 (P01031 678-1676 limits assumed): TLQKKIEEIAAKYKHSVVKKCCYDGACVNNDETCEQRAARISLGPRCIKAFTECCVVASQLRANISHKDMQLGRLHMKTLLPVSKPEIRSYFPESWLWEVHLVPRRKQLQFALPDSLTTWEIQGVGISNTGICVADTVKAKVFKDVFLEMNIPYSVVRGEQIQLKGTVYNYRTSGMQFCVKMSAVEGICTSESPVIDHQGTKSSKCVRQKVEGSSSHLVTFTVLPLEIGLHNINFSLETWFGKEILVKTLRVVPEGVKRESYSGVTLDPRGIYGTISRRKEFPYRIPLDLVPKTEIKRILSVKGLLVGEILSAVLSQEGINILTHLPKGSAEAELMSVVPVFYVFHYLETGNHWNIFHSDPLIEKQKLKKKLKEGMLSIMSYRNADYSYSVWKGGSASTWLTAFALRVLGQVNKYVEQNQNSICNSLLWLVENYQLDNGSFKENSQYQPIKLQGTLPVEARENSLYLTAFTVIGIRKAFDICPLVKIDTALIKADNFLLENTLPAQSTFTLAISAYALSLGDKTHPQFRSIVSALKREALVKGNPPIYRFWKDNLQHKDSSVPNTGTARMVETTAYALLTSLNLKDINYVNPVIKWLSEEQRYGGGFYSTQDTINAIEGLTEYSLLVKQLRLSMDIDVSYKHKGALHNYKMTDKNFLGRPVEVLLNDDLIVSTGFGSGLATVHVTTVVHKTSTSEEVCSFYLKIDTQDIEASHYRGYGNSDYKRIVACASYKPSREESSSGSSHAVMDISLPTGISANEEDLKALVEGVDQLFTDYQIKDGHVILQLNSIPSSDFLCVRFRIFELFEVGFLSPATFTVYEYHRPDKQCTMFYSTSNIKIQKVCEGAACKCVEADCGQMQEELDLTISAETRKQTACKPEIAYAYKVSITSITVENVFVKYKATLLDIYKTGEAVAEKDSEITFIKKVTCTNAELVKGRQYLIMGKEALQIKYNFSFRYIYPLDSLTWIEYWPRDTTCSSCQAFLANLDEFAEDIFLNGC
Sequence of C5 (P01031 19-673 limits assumed): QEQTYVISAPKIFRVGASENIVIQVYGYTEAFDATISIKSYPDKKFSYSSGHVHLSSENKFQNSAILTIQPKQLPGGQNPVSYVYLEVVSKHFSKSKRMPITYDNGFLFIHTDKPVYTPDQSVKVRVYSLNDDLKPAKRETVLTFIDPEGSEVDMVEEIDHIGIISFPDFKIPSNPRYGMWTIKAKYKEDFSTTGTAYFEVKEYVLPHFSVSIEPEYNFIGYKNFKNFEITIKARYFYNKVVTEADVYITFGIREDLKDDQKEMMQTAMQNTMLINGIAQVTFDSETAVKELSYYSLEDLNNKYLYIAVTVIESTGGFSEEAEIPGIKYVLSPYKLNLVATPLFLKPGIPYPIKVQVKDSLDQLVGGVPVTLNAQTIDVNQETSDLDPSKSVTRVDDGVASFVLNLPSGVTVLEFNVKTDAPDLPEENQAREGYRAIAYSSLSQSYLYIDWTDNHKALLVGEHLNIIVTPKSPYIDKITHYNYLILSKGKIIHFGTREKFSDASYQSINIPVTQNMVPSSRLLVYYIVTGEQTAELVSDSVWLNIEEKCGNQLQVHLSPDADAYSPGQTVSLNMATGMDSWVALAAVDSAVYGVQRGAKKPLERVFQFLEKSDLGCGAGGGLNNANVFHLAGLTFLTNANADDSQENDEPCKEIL

For the compound `CCCCCCCCCCCCCCCC(=O)NCCCC[C@H](NC(=O)[C@@H](NC(=O)[C@@H]1CCCN1C(=O)[C@H](Cc1ccc(O)cc1)NC(=O)[C@H](CCC(=O)O)NC(=O)[C@H](Cc1c[nH]c2ccccc12)NC(=O)[C@H](Cc1ccc(O)cc1)NC(=O)[C@@H](NC(=O)[C@H](CC(=O)O)N(C)C(=O)[C@@H]1CC(=O)NCCCC[C@H](NC(C)=O)C(=O)N[C@@H](C(C)C)C(=O)N[C@@H](CCC(=O)O)C(=O)N[C@@H](CCCNC(=N)N)C(=O)N[C@@H](Cc2ccccc2)C(=O)N1)C(C)(C)C)C1CCCCC1)C(=O)O` [Compound R3195, [cyclo(1,6)]Ac-K-V-E-R-F-D-(N—Me)D-Tbg-Y-W-E-Y-P-Chg-(Lys-C16)], the IC50 ([…] human C5 depleted sera) was 62.5 nM.

For the setting “[…] human C5 depleted sera”, `CCC[C@H](NC(=O)[C@@H](NC(=O)[C@@H]1CCCN1C(=O)[C@H](Cc1ccc(O)cc1)NC(=O)[C@H](CCC(=O)O)NC(=O)[C@H](Cc1cccc(CN)c1)NC(=O)[C@H](Cc1ccc(O)cc1)NC(=O)[C@@H](NC(=O)[C@H](CC(=O)O)NC(=O)[C@@H]1CSCc2cccc(c2)CSC[C@H](NC(C)=O)C(=O)N[C@@H](C(C)C)C(=O)N[C@@H](CCC(=O)O)C(=O)N[C@@H](CCCNC(=N)N)C(=O)N[C@@H](Cc2ccccc2)C(=O)N1)C(C)(C)C)C1CCCCC1)C(=O)O` [Compound R3181, [mXylyl(1,6)]Ac-C-V-E-R-F-C-D-Tbg-Y-(3-aminomethyl)Phe-E-Y-P-Chg-Nvl] registered a half-maximal inhibitory concentration (IC50) of 1500 nM. Same read-out and setting: the same measure for `CCC[C@H](NC(=O)[C@@H](NC(=O)[C@@H]1CCCN1C(=O)[C@H](Cc1ccc(O)cc1)NC(=O)[C@H](CCC(=O)O)NC(=O)[C@H](Cc1c[nH]c2ncccc12)NC(=O)[C@H](Cc1ccc(O)cc1)NC(=O)[C@@H](NC(=O)C1(NC(=O)[C@@H]2CSCc3cccc(c3)CSC[C@H](NC(C)=O)C(=O)N[C@@H](C(C)C)C(=O)N[C@@H](CCC(=O)O)C(=O)N[C@@H](CCCNC(=N)N)C(=O)N[C@@H](Cc3ccccc3)C(=O)N2)CCOCC1)C(C)(C)C)C1CCCCC1)C(=O)O` [Compound R3186, [mXylyl(1,6)]Ac-C-V-E-R-F-C-(Ac-Pyran)-Tbg-Y-azaTrp-E-Y-P-Chg-Nvl] (Ac-CVERFC[Thp][Tle]Y[Trp(7-aza)]EYP[Chg][Nva]-OH; linker 1-6 via mXylylene; C-terminus assumed): 18 nM; for `CCCCCCCCCCCCCCCC(=O)NCCCC[C@H](NC(=O)[C@@H](NC(=O)[C@@H]1CCCN1C(=O)[C@H](Cc1ccc(O)cc1)NC(=O)[C@H](CCC(=O)O)NC(=O)[C@H](Cc1c[nH]c2ncccc12)NC(=O)[C@H](Cc1ccc(O)cc1)NC(=O)[C@@H](NC(=O)[C@H](CC(=O)O)NC(=O)[C@@H]1CSCc2cccc(c2)CSC[C@H](NC(C)=O)C(=O)N[C@@H](C)C(=O)N[C@@H](CCC(=O)O)C(=O)N[C@@H](CCCNC(=N)N)C(=O)N[C@@H](Cc2ccccc2)C(=O)N1)C(C)(C)C)c1ccccc1)C(=O)O` [Compound R3189, [mXylyl(1,6)]Ac-C-A-E-R-F-C-D-Tbg-Y-azaTrp-E-Y-P-Phg-(Lys-C16)]: 81.5 nM; for `CCCCCCCCCCCCCCCC(=O)NCCCC[C@H](NC(=O)[C@@H](NC(=O)[C@@H]1CCCN1C(=O)[C@H](Cc1ccc(O)cc1)NC(=O)[C@H](CCC(=O)O)NC(=O)[C@H](Cc1c[nH]c2ncccc12)NC(=O)[C@H](Cc1ccc(O)cc1)NC(=O)[C@@H](NC(=O)[C@H](CC(=O)O)N(C)C(=O)[C@@H]1CSSCCC(=O)N[C@H](C)C(=O)N[C@@H](CCC(=O)O)C(=O)N[C@@H](CCCNC(=N)N)C(=O)N[C@@H](Cc2ccccc2)C(=O)N1)C(C)(C)C)C1CCCCC1)C(=O)O` [Compound R3199, [cyclo(1,6)](desamino)C-(D-Ala)-E-R-F-C-(N—Me)D-Tbg-Y-azaTrp-E-Y-P-Chg-(Lys-C16)]: 112 nM.

Turning to `CCC[C@H](NC(=O)[C@@H](NC(=O)[C@@H]1CCCN1C(=O)[C@H](Cc1c[nH]c2ccccc12)NC(=O)[C@H](CCC(=O)O)NC(=O)[C@H](Cc1c[nH]c2ncccc12)NC(=O)[C@H](Cc1ccc(O)cc1)NC(=O)[C@@H](NC(=O)[C@H](CC(=O)O)NC(=O)[C@@H]1CSCc2cccc(c2)CSC[C@H](NC(C)=O)C(=O)N[C@@H](C(C)C)C(=O)N[C@@H](CCC(=O)O)C(=O)N[C@@H](CCCNC(=N)N)C(=O)N[C@@H](Cc2ccccc2)C(=O)N1)C(C)(C)C)C1CCCCC1)C(=O)O` [Compound R3177, [mXylyl(1,6)]Ac-C-V-E-R-F-C-D-Tbg-Y-azaTrp-E-W-P-Chg-Nvl] (Ac-CVERFCD[Tle]Y[Trp(7-aza)]EWP[Chg][Nva]-OH; linker 1-6 via mXylylene), the IC50 (1.5% human C5 depleted sera) stood at 12 nM. `CC(=O)N[C@H]1CCCCNC(=O)C[C@@H](C(=O)N(C)[C@@H](CC(=O)O)C(=O)N[C@H](C(=O)N[C@@H](Cc2ccc(O)cc2)C(=O)N[C@@H](Cc2c[nH]c3ccccc23)C(=O)N[C@@H](CCC(=O)O)C(=O)N[C@@H](Cc2ccc(O)cc2)C(=O)N2CCC[C@H]2C(=O)N[C@H](C(=O)N[C@@H](CCCCN)C(=O)O)C2CCCCC2)C(C)(C)C)NC(=O)[C@H](Cc2ccccc2)NC(=O)[C@H](CCCNC(=N)N)NC(=O)[C@H](CCC(=O)O)NC(=O)[C@H](C(C)C)NC1=O` [Compound R3196, [cyclo(1,6)]Ac-K-V-E-R-F-D-(N—Me)D-Tbg-Y-W-E-Y-P-Chg-K] returned an IC50 ([…] human C5 depleted sera) of 3 nM. On the same count and under the same terms, the same measure for `CCC[C@H](NC(=O)[C@@H](NC(=O)[C@@H]1CCCN1C(=O)[C@H](Cc1ccc(O)cc1)NC(=O)[C@H](CCC(=O)O)NC(=O)[C@H](Cc1c[nH]c2ncccc12)NC(=O)[C@H](Cc1ccc(O)cc1)NC(=O)[C@@H](NC(=O)[C@H](Cc1nnn[nH]1)NC(=O)[C@@H]1CC(=O)NCCCC[C@H](NC(C)=O)C(=O)N[C@@H](C(C)C)C(=O)N[C@@H](CCC(=O)O)C(=O)N[C@@H](CCCNC(=N)N)C(=O)N[C@@H](Cc2ccccc2)C(=O)N1)C(C)(C)C)C1CCCCC1)C(=O)O` [Compound R3174, [cyclo(1,6)]Ac-K-V-E-R-F-D-Asp(T)-Tbg-Y-azaTrp-E-Y-P-Chg-Nvl] (Ac-KVERFD[Ala(1H-tetrazol-5-yl)][Tle]Y[Trp(7-aza)]EYP[Chg][Nva]-OH; lactam 1-6; C-terminus assumed): 2.3 nM. For the compound `CCC[C@H](NC(=O)[C@@H](NC(=O)[C@@H]1CCCN1C(=O)[C@H](CCc1cccc(Cl)c1)NC(=O)[C@H](CCC(=O)O)NC(=O)[C@H](Cc1c[nH]c2ncccc12)NC(=O)[C@H](Cc1ccc(O)cc1)NC(=O)[C@@H](NC(=O)[C@H](CC(=O)O)NC(=O)[C@@H]1CSCc2cccc(c2)CSC[C@H](NC(C)=O)C(=O)N[C@@H](C(C)C)C(=O)N[C@@H](CCC(=O)O)C(=O)N[C@@H](CCCNC(=N)N)C(=O)N[C@@H](Cc2ccccc2)C(=O)N1)C(C)(C)C)C1CCCCC1)C(=O)O` [Compound R3179, [mXylyl(1,6)]Ac-C-V-E-R-F-C-D-Tbg-Y-azaTrp-E-(m-Cl-homo)Phe-P-Chg-Nvl] (Ac-CVERFCD[Tle]Y[Trp(7-aza)]E[hPhe(3-Cl)]P[Chg][Nva]-OH; linker 1-6 via mXylylene; C-terminus assumed), where the note is “[…] human C5 depleted sera”, 83 nM corresponded to half-maximal inhibition (IC50).

`CCC[C@H](NC(=O)[C@@H](NC(=O)[C@@H]1CCCN1C(=O)[C@H](Cc1ccc(O)cc1)NC(=O)[C@H](CCC(=O)O)NC(=O)[C@H](Cc1c[nH]c2ncccc12)NC(=O)[C@H](Cc1ccc(O)cc1)NC(=O)[C@@H](NC(=O)C1(NC(=O)[C@@H]2CSCc3cccc(c3)CSC[C@H](NC(C)=O)C(=O)N[C@@H](C(C)C)C(=O)N[C@@H](CCC(=O)O)C(=O)N[C@@H](CCCNC(=N)N)C(=O)N[C@@H](Cc3ccccc3)C(=O)N2)CCCC1)C(C)(C)C)C1CCCCC1)C(=O)O` [Compound R3185, [mXylyl(1,6)]Ac-C-V-E-R-F-C-Cle-Tbg-Y-azaTrp-E-Y-P-Chg-Nvl] (Ac-CVERFC[Ac5c][Tle]Y[Trp(7-aza)]EYP[Chg][Nva]-OH; linker 1-6 via mXylylene; C-terminus assumed) had an IC50 ([…] human C5 depleted sera) of 12.5 nM. In the case of `CCCCCCCCCCCCCCCC(=O)NCCCC[C@H](NC(=O)C(C)(C)NC(=O)[C@@H]1CCCN1C(=O)[C@H](Cc1ccc(O)cc1)NC(=O)[C@H](CCC(=O)O)NC(=O)[C@H](Cc1c[nH]c2ncccc12)NC(=O)[C@H](Cc1ccc(O)cc1)NC(=O)[C@@H](NC(=O)[C@H](CC(=O)O)N(C)C(=O)[C@@H]1CC(=O)NCCCC[C@H](NC(C)=O)C(=O)N[C@@H](C(C)C)C(=O)N[C@@H](CCC(=O)O)C(=O)N[C@@H](CCCNC(=N)N)C(=O)N[C@@H](Cc2ccccc2)C(=O)N1)C(C)(C)C)C(=O)O` [Compound R3200, [cyclo(1,6)]Ac-K-V-E-R-F-D-(N—Me)D-Tbg-Y-azaTrp-E-Y-P-Aib-(Lys-C16)], the IC50 ([…] human C5 depleted sera) was found to be 88.5 nM. For `CCC[C@H](NC(=O)[C@@H](NC(=O)[C@@H]1CCCN1C(=O)[C@H](Cc1ccc2ccccc2c1)NC(=O)[C@H](CCC(=O)O)NC(=O)[C@H](Cc1c[nH]c2ncccc12)NC(=O)[C@H](Cc1ccc(O)cc1)NC(=O)[C@@H](NC(=O)[C@H](CC(=O)O)NC(=O)[C@@H]1CSCc2cccc(c2)CSC[C@H](NC(C)=O)C(=O)N[C@@H](C(C)C)C(=O)N[C@@H](CCC(=O)O)C(=O)N[C@@H](CCCNC(=N)N)C(=O)N[C@@H](Cc2ccccc2)C(=O)N1)C(C)(C)C)C1CCCCC1)C(=O)O` [Compound R3180, [mXylyl(1,6)]Ac-C-V-E-R-F-C-D-Tbg-Y-azaTrp-E-2Nal-P-Chg-Nvl] (Ac-CVERFCD[Tle]Y[Trp(7-aza)]E[2Nal]P[Chg][Nva]-OH; linker 1-6 via mXylylene; C-terminus assumed), the IC50 ([…] human C5 depleted sera) was found to be 29 nM.

In turn, `CC(=O)N[C@H]1CCCCNC(=O)C[C@@H](C(=O)N(C)[C@@H](CC(=O)O)C(=O)N[C@H](C(=O)N[C@@H](Cc2ccc(O)cc2)C(=O)N[C@@H](Cc2c[nH]c3ccccc23)C(=O)N[C@@H](CCC(=O)O)C(=O)N[C@@H](Cc2ccc(O)cc2)C(=O)N2CCC[C@H]2C(=O)N[C@H](C(=O)N[C@@H](CCCCNC(CC(C)C)=C2C(=O)CC(C)(C)CC2=O)C(=O)O)C2CCCCC2)C(C)(C)C)NC(=O)[C@H](Cc2ccccc2)NC(=O)[C@H](CCCNC(=N)N)NC(=O)[C@H](CCC(=O)O)NC(=O)[C@H](C(C)C)NC1=O` [Compound R3197, [cyclo(1,6)]Ac-K-V-E-R-F-D-(N—Me)D-Tbg-Y-W-E-Y-P-Chg-K14] gave an IC50 ([…] human C5 depleted sera) of 4 nM.
